Here are results for 7 molecules from patent publication US20250186461A1, “METHODS AND COMPOSITIONS FOR TREATING AND/OR PREVENTING HERNIAS” (Northwestern University, priority 2023, published 2025).

One assay relates to WT mice. The experiment in a line: E2/P4-induced hernia formation in WT mice. Particulars: WT male mice. In kind it is in vivo, mouse. An excerpt:
All placebo-treated Arom^hum mice developed hernias starting from 5 weeks of age. None of the WT littermates developed hernias. […] The mouse scrotum is connected to the peritoneal cavity with a narrow funicular (or inguinal) canal, with walls composed of LAM tissue. Structurally normal LAM tissue is essential to maintain the tone of this canal and prevent herniation of the bowel.
Experiment 1a1: Does the addition of P4 to E2 treatment accelerate LAM fibrosis and hernia formation in WT mice? It was shown that treatment of male WT mice with extremely high doses of systemic estrogens starting around or after the onset of puberty caused inguinal hernia in one third to half of these animals^23-25. We hypothesize that this effect is primarily mediated by the E2 induction of PGR expression in LAM fibroblasts. Male mice have readily detectable P4 levels in the circulation and LAM tissue to activate PGR in LAM fibroblasts (FIG. 6). If this were true, the addition of pharmacologic quantities of P4 (75 mg/pellet for 12-week release)^73 to E2 (0.3 mg/pellet for 12-week release)^23-25 in WT mice should accelerate this phenotype. Our ongoing preliminary study, whereby a 6-week treatment with P4+E2 induced large inguinal hernia in all WT mice (FIG. 7A), supports the following experiment. Long-term (8 weeks or longer) treatment with E2 only is anticipated to cause hernias in up to half of WT mice based on previous findings^23-25. We will determine whether P4+E2 treatment over 12 weeks will give rise to larger hernias in a higher number of mice compared with E2-only treatment. […] See Statistical Methods above for sample size calculation. Hernia surface area will be measured using a digital caliper and calculated as previously described (length×width)^19. At the designated endpoints, LAM and UAM (control) from each mouse will be resected, with one-half of the tissue snap-frozen in liquid nitrogen, and the other half fixed in 4% phosphate-buffered paraformaldehyde for histological and IHC analyses (see below). […]

Assay [1] concerns PGR expression in LAM fibroblasts of Arom^hum mice. The experiment in a line: E2/ESR1-induced PGR expression (mRNA, immunoblotting) in LAM fibroblasts. In kind it is cell-based, mouse. Conditions: for E2-induced expression of Pgr (mRNA): 100 nM ICI 182,780 or 10 μM MPP, pretreated 2 h, E2 10 nM. The method, then: (A) Time course of E2 (10 nM) effect on PGR protein expression in LAM fibroblasts of Arom^hum mice. […] (E) PGR protein levels in LAM primary fibroblasts from WT and Arom^hum mice after treatment with ICI with or without E2 for 48 h. Cells were pretreated with ICI or MPP for 2 h before adding E2. Data are representative of 3 independent experiments; B-actin serves as a loading control for (A) and (E). Vch: vehicle. […] MPP: A selective ESR1 antagonist.
Breast cancer cell line T47D served as a positive control.
In general terms: A western blot detects proteins with antibodies after separation by electrophoresis.

Assay [2] relates to Arom^hum mice. Particulars: previously shown (ref 19); cited from earlier work.
Assay [3] relates to Arom^hum mice. Particulars: earlier work of the applicant (refs 19, 22); cited from earlier work.
The test system of assay [4] is Arom^hum mice. Put plainly: Reversal of existing (large) hernias in Arom^hum mice. In kind it is in vivo, mouse. Conditions: Arom^hum mice with large hernias; 3.75 mg/pellet, 12-week subcutaneous release; n=10-11. An excerpt: Arrows in panels B and D point to hernias.
The scrotal area in WT mice is under ˜125 mm^2. We classified hernias as small, medium, or large based on the bulging area through muscle tissue of 125-175 mm^2, 175-225 mm^2, or ≥225 mm^2, respectively. […] Since long-term anti-E2/ESR1 treatments cause significant side effects (e.g., sexual dysfunction or osteoporosis), we mechanistically explored the specific and major downstream effectors of E2/ESR1 signaling leading to muscle fibrosis. […] The key observations that support the role of P4/PGR signaling are summarized below.

For assay [5], the system named is Arom^hum mice. The experiment in a line: Hernia prevention in Arom^hum mice (treatment before hernia formation). In kind it is in vivo, mouse. Particulars: male Arom^hum mice; 12-week treatment started at 3-3.5 weeks of age (before hernia formation); vs placebo. An excerpt:
Our study design is robust, utilizing Arom^hum mice with endpoints examined after treatment with placebo or anti-P4/PGR, and compared to those of WT littermates using 2 different tissue sites: UAM and LAM (normal or weakened/herniated). Inguinal hernia affects predominantly men vs. women (10:1 ratio). Inguinal hernias are unique to male mice and aged men. […] Here, we will focus on the effects of P4/PGR action on skeletal muscle integrity and hernia formation in males, and our work will be carried out in male mice or tissues primarily from men over 50 years of age. We will use mouse or human tissues or primary cells to closely recapitulate in vivo pathology.
The mouse scrotum is connected to the peritoneal cavity with a narrow funicular (or inguinal) canal, with walls composed of LAM tissue. Structurally normal LAM tissue is essential to maintain the tone of this canal and prevent herniation of the bowel.
Experiment 1a1: Does the addition of P4 to E2 treatment accelerate LAM fibrosis and hernia formation in WT mice? […] We hypothesize that this effect is primarily mediated by the E2 induction of PGR expression in LAM fibroblasts. […] If this were true, the addition of pharmacologic quantities of P4 (75 mg/pellet for 12-week release)^73 to E2 (0.3 mg/pellet for 12-week release)^23-25 in WT mice should accelerate this phenotype. […] See Statistical Methods above for sample size calculation. Hernia surface area will be measured using a digital caliper and calculated as previously described (length×width)^19. At the designated endpoints, LAM and UAM (control) from each mouse will be resected, with one-half of the tissue snap-frozen in liquid nitrogen, and the other half fixed in 4% phosphate-buffered paraformaldehyde for histological and IHC analyses (see below). All tissue and serum (for P4/E2 levels) samples will be collected between 10:00 AM and noon to avoid possible variability in daily hormone fluctuations. […] We will continue to complete the rest of the proposed study in this subaim. We will also assess whether and extent of muscle fibrosis and atrophy will be induced in P4+E2-induced large hernias and E2-induced small hernias. […] P4 antagonists show various levels of selectivity for PGR. […] The use of 3 distinct P4/PGR antagonists with different properties will establish the role of PGR in muscle fibrosis and hernia.
Hernias will be classified as small, medium, or large if the bulging area through muscle tissue is 125-175 mm^2, 175-225 mm^2, or >225 mm^2, respectively. […] We will assess whether muscle fibrosis, atrophy, and hernia are arrested or reversed. […] Hernia size will be measured. After completion of treatment, the mice will be dissected, and LAM, UAM (control), and serum will be collected. A total of 100 mg of tissue (LAM and UAM) will be obtained and frozen for measurement of tissue E2/P4.

“Also recorded” adds a separate entry of the source.

Turning to `CC(=O)[C@H]1CC[C@H]2[C@@H]3CCC4=CC(=O)CC[C@]4(C)[C@H]3CC[C@]12C` [P4, Progesterone], in the assay with WT mice (treatment started at 9-10 weeks of age, up to 12 weeks), the hernia formation entry is given as “did not induce any hernia formation”.
For the molecule `C[C@]12CC[C@@H]3c4ccc(O)cc4CC[C@H]3[C@@H]1CC[C@@H]2O` [E2, Estradiol], the hernia size induced in the assay on WT mice (treatment started at the age of 9 weeks) is on record as 125-175 mm2.
On to `Cc1c(-c2ccc(O)cc2)nn(-c2ccc(O)cc2)c1-c1ccc(OCCN2CCCCC2)cc1` [MPP], for which the “E2-induced expression of Pgr (mRNA)” value in assay [1] is “significantly decreased E2-induced expression of Pgr”.
As to `N#Cc1ccc(C(c2ccc(C#N)cc2)n2cncn2)cc1` [letrozole, Letrozole], in the assay on Arom^hum mice [2], the “prevention of LAM fibrosis and hernia formation” value is on record as “entirely prevents this phenotype”. The “reversal of existing hernias” value in the assay on Arom^hum mice [3] was “reversed existing hernias and restored normal anatomy in Arom^hum mice”.
Turning to `C[C@]12CC[C@@H]3c4ccc(O)cc4C[C@@H](CCCCCCCCC[S+]([O-])CCCC(F)(F)C(F)(F)F)[C@H]3[C@@H]1CC[C@@H]2O` (some centres unmarked) [fulvestrant], the “reversal of large hernias, LAM fibrosis and muscle atrophy” value in the assay with Arom^hum mice [4] is “reversed large hernias and restored normal anatomy and reversed LAM tissue fibrosis and muscle atrophy; also recorded: successfully reversed them to normal size, rescued LAM fibrosis, reversed muscle atrophy, and restored normal anatomy”. Moreover, the “E2-induced expression of Pgr (mRNA)” value in assay [1] was “significantly decreased E2-induced expression of Pgr”. In addition, the “protein levels of 3 PGR isoforms (immunoblotting)” value in assay [1] (LAM fibroblasts of WT and Arom^hum mice, ICI with or without E2 for 48 h) is recorded as “blocked”. For the same molecule, in the assay on Arom^hum mice [3], the “reversal of existing hernias” value is “reversed existing hernias and restored normal anatomy in Arom^hum mice”.
On to `Cc1cc(-c2ncc(CC(=O)Nc3ccc(-c4cnccn4)cn3)cc2C)ccn1` [LGK974], for which, in the assay with Arom^hum mice [5], the “hernia formation / hernia size” value is given as “None prevented hernia formation”.
On the same count and under the same terms, as for `C[C@]12CCC(=O)C[C@@H]1CC[C@@H]1[C@@H]2CC[C@]2(C)[C@@H](O)CC[C@@H]12` [DHT], the entry is “None prevented hernia formation”.
